# Test results published in patent publication US6710168B1, “Glycopeptide antibiotics, combinatorial libraries of glycopeptide antibiotics and methods of producing same” (The Trustees of the University of Princeton, priority 1999, dated 2004).
# Tests used:
# Assay type in all cases: cell-based
# [1] = test system: gentamicin, streptmycin, vancomycin resistant Enterococcus faecalis (ATCC 51299); assay: microbe, parasite or virus in culture; conditions: for MIC VREF: Enterococcus faecalis ATCC51299, vancomycin resistance; for MIC: Enterococcus faecalis, ATCC51299, read-out: MIC VREF
# Description: (§1) Evaluation of vancomycin analogs is performed using in vitro susceptibility tests and a time-kill assay. [NCCL Standard, 1993] In susceptibility tests, five strains of bacteria, two of the most important: Staphylococcus aureus and Enterococcus faecalis (both susceptible and resistant strains), and Bacillus cereus are chosen and bacteria viability remaining in each well is evaluated using a colorimetric assay based on the tetrazolium salt 3-(4,5-dimethyl-2-thiazolyl)-2,5-diphenyl-2H tetrazolium bromide (MTT) and minimum inhibitory concentration (MIC) values are determined as μg/mL. [Mosmann, T. (1983); Damour, O., et al. (1992); Mikami, Y., et al. (1994)] This assay gives susceptibility information quickly, efficiently, and clearly.
# (§2) All strains [Bacillus cereus (ATCC® 11778), Staphylococcus aureus (ATCC® 29213), Methicillin resistant Staphylococcus aureus (ATCC® 33591), Enterococcus faecalis (ATCC® 29212), and gentamicin, streptmycin, vancomycin resistant Enterococcus faecalis (ATCC® 51299), are purchased from REMEL (Lenexa, Kans.).
# (§3) MICs are determined by the microdilution method using 96-well microplates. Samples are suspended with Cation Adjusted (20 to 25 mg of Ca^2+/mL and 10 to […] of Mg^2+) Mueller-Hinton broth (Difco Laboratories, Detroit, Mich.) and are two-fold diluted from 5 μg/mL to […] on microplates (12 step dilution). To each well, which contained 100 μL of cell suspension (10^6 CFU/mL), 100 μL of antibiotic solution is added and the plates are incubated at 37° C. for 24 h. 50 μL of MTT solution (1 mg/mL) is added to each well, then the plates are incubated under the same conditions (incubation time; 30 min for Bacillus cereus, Staphylococcus aureus, and Methicillin resistant Staphylococcus aureus; 2 hours for Enterococcus faecalis and Gentamicin, Streptmycin, Vancomycin Enterococcus faecalis). MTT is a yellow tetrazolium salt that is reduced by mitochondrial enzymes in viable cells to an insoluble blue formazan product. MIC values are evaluated by observing the lowest drug concentration to inhibit bacteria growth.
# [2] = test system: Bacillus cereus (ATCC 11778); assay: MIC susceptibility test, microdilution with MTT readout; conditions: for MIC BC: Bacillus ceres ATCC11778; for MIC: Bacillus cereus, ATCC11778, read-out: MIC BC
# Description: as §1, §2, §3
# [3] = test system: Staphylococcus aureus (ATCC 29213); assay: as above; conditions: Staphylococcus aureus ATCC29213; for MIC: read-out: MIC SA
# Description: as §1, §2, §3
# [4] = test system: Methicillin resistant Staphylococcus aureus (ATCC 33591); assay: as above; conditions: Staphylococcus aureus ATCC3359, Methicillin resistance; for MIC: ATCC 3359 / ATCC 33591 / MRSA, read-out: MIC MRSA
# Description: as §1, §2, §3
# [5] = test system: Enterococcus faecalis (ATCC 29212); assay: as above; conditions: Enterococcus faecalis ATCC29212; for MIC: read-out: MIC EF
# Description: as §1, §2, §3
# [6] = test system: Enterococcus faecalis CL5244, VanB; assay: MIC susceptibility test; conditions: Enterococcus faecalis CL5244, VanB; for MIC: read-out: MIC CL5244
# Description: as §1, §3
# [7] = test system: Enterococcus faecium CL5137, VanA; assay: MIC susceptibility test; conditions: Enterococcus faecium CL5137, VanA; for MIC: read-out: MIC CL5137
SMILES,MIC VREF [1],MIC BC [2],MIC SA [3] [mg/L],MIC MRSA [4],MIC EF [5],MIC CL5244 [6] [mg/L],MIC CL5137 [7],MIC [6] [mg/L],MIC [7] [mg/L],MIC [1] [mg/L],MIC [2] [mg/L],MIC [3] [mg/L],MIC [4] [mg/L],MIC [5] [mg/L]
"CNC(CC(C)C)C(=O)NC1C(=O)NC(CC(N)=O)C(=O)NC2C(=O)NC3C(=O)NC(C(=O)NC(C(=O)O)c4cc(O)cc(O)c4-c4cc3ccc4O)C(O)c3ccc(c(Cl)c3)Oc3cc2cc(c3OC2OC(CSCC(=O)O)C(O)C(O)C2OC2CC(C)(N)C(O)C(C)O2)Oc2ccc(cc2Cl)C1O (stereo not drawn) [LXXI, Glucose-C6-thioacetato Vancomycin]",5.0< μg/mL,5.0< μg/mL,5.0,5.0< μg/mL,5.0< μg/mL,,,,,,,,,
"CCCCCCCCCCNC1(C)CC(OC2C(Oc3c4cc5cc3Oc3ccc(cc3Cl)C(O)C3NC(=O)C(NC(=O)C5NC(=O)C(CC(N)=O)NC(=O)C(NC(=O)C(CC(C)C)NC)C(O)c5ccc(c(Cl)c5)O4)c4ccc(O)c(c4)-c4c(O)cc(O)cc4C(C(=O)O)NC3=O)OC(CNCc3ccc(-c4ccc(Cl)cc4)o3)C(O)C2O)OC(C)C1O (stereo not drawn) [XLIX, Glucose-C6-N-5-(4-chlorophenyl)furan-1-methylene-vancosamine-N-decyl Vancomycin]",1.3 µg/mL,3.8 µg/mL,5.0,2.5 µg/mL,1.9 µg/mL,0.8,13 µg/mL,,,,,,,
"CNC(CC(C)C)C(=O)NC1C(=O)NC(CC(N)=O)C(=O)NC2C(=O)NC3C(=O)NC(C(=O)NC(C(=O)O)c4cc(O)cc(O)c4-c4cc3ccc4O)C(O)c3ccc(c(Cl)c3)Oc3cc2cc(c3OC2OC(Cn3ccnc3)C(O)C(O)C2OC2CC(C)(N)C(O)C(C)O2)Oc2ccc(cc2Cl)C1O (stereo not drawn) [LVII, Glucose-C6-imidazole Vancomycin]",5.0 µg/mL,2.5 µg/mL,1.3,1.9 µg/mL,2.5 µg/mL,50,50< μg/mL,,,,,,,
"CNC(=S)NCC1OC(Oc2c3cc4cc2Oc2ccc(cc2Cl)C(O)C2NC(=O)C(NC(=O)C4NC(=O)C(CC(N)=O)NC(=O)C(NC(=O)C(CC(C)C)NC)C(O)c4ccc(c(Cl)c4)O3)c3ccc(O)c(c3)-c3c(O)cc(O)cc3C(C(=O)O)NC2=O)C(OC2CC(C)(N)C(O)C(C)O2)C(O)C1O (stereo not drawn) [XXXII, Glucose-C6-N-thiocarbonyl Methylamino Vancomycin]",5.0 µg/mL,1.9 µg/mL,1.9,2.5 µg/mL,1.3 µg/mL,,,,,,,,,
"CN[C@@H](CC(C)C)C(=O)N[C@H]1C(=O)N[C@@H](CC(N)=O)C(=O)N[C@H]2C(=O)NC3C(=O)N[C@H](C(=O)N[C@@H](C(=O)O)c4cc(O)cc(O)c4-c4cc3ccc4O)[C@H](O)c3ccc(c(Cl)c3)Oc3cc2cc(c3OC2OC(CNC(=O)C(F)(F)F)C(O)C(O)C2OC2CC(C)(N)C(O)C(C)O2)Oc2ccc(cc2Cl)[C@H]1O (stereo partly drawn) [XL, Glucose-C6-trifluoroacetamide Vancomycin]",,,,,,,,25,> 50,5,1.3,0.48,1,1.3
"CCCCCCCCCCNCC1OC(Oc2c3cc4cc2Oc2ccc(cc2Cl)C(O)C2NC(=O)C(NC(=O)C4NC(=O)C(CC(N)=O)NC(=O)C(NC(=O)C(CC(C)C)NC)C(O)c4ccc(c(Cl)c4)O3)c3ccc(O)c(c3)-c3c(O)cc(O)cc3C(C(=O)O)NC2=O)C(OC2CC(C)(N)C(O)C(C)O2)C(O)C1O (stereo not drawn) [XXXI, Glucose-C6-N-decyl Vancomycin]",2.5 µg/mL,1.3 µg/mL,1.3,1.3 µg/mL,0.32 µg/mL,,,,,,,,,
"CNC(CC(C)C)C(=O)NC1C(=O)NC(CC(N)=O)C(=O)NC2C(=O)NC3C(=O)NC(C(=O)NC(C(=O)O)c4cc(O)cc(O)c4-c4cc3ccc4O)C(O)c3ccc(c(Cl)c3)Oc3cc2cc(c3OC2OC(CSc3cccc(Cl)c3)C(O)C(O)C2OC2CC(C)(N)C(O)C(C)O2)Oc2ccc(cc2Cl)C1O (stereo not drawn) [LV, Glucose-C6-3-chlorothiophenyl Vancomycin]",0.63 µg/mL,0.63 µg/mL,0.48,0.32 µg/mL,0.63 µg/mL,3.2,50< μg/mL,,,,,,,
"CNC(CC(C)C)C(=O)NC1C(=O)NC(CC(N)=O)C(=O)NC2C(=O)NC3C(=O)NC(C(=O)NC(C(=O)O)c4cc(O)cc(O)c4-c4cc3ccc4O)C(O)c3ccc(c(Cl)c3)Oc3cc2cc(c3OC2OC(CNC(=O)c3cccs3)C(O)C(O)C2OC2CC(C)(N)C(O)C(C)O2)Oc2ccc(cc2Cl)C1O (stereo not drawn) [XXXIII, Glucose-C6-N-(thiophene-2-carboxamide) Vancomycin]",5.0 µg/mL,1.3 µg/mL,1.3,2.5 µg/mL,1.3 µg/mL,,,,,,,,,
"CN[C@@H](CC(C)C)C(=O)N[C@H]1C(=O)N[C@@H](CC(N)=O)C(=O)N[C@H]2C(=O)NC3C(=O)N[C@H](C(=O)N[C@@H](C(=O)O)c4cc(O)cc(O)c4-c4cc3ccc4O)[C@H](O)c3ccc(c(Cl)c3)Oc3cc2cc(c3OC2OC(CSc3ccc(Br)cc3)C(O)C(O)C2OC2CC(C)(N)C(O)C(C)O2)Oc2ccc(cc2Cl)[C@H]1O (stereo partly drawn) [LIX, Glucose-C6-1-thio-4-bromobenzene Vancomycin]",,,,,,,,6.3,> 50,0.32,1.3,0.63,1,1
"CNC(CC(C)C)C(=O)NC1C(=O)NC(CC(N)=O)C(=O)NC2C(=O)NC3C(=O)NC(C(=O)NC(C(=O)O)c4cc(O)cc(O)c4-c4cc3ccc4O)C(O)c3ccc(c(Cl)c3)Oc3cc2cc(c3OC2OC(CNC(=O)c3ccccc3I)C(O)C(O)C2OC2CC(C)(N)C(O)C(C)O2)Oc2ccc(cc2Cl)C1O (stereo not drawn) [XXXVI, Glucose-C6-N-2-iodobenzoyl Vancomycin]",2.5 µg/mL,1.3 µg/mL,1.3,2.5 µg/mL,1.3 µg/mL,,,,,,,,,
"CNC(CC(C)C)C(=O)NC1C(=O)NC(CC(N)=O)C(=O)NC2C(=O)NC3C(=O)NC(C(=O)NC(C(=O)O)c4cc(O)cc(O)c4-c4cc3ccc4O)C(O)c3ccc(c(Cl)c3)Oc3cc2cc(c3OC2OC(CNC(=O)CN)C(O)C(O)C2OC2CC(C)(N)C(O)C(C)O2)Oc2ccc(cc2Cl)C1O (stereo not drawn) [XXXIV, Glucose-C6-N-(glycine-carboxamide) Vancomycin]",5.0< μg/mL,5.0 µg/mL,1.9,2.5 µg/mL,2.5 µg/mL,,,,,,,,,
"CCCCCCCCCCCCCC(=O)NCC1OC(Oc2c3cc4cc2Oc2ccc(cc2Cl)C(O)C2NC(=O)C(NC(=O)C4NC(=O)C(CC(N)=O)NC(=O)C(NC(=O)C(CC(C)C)NC)C(O)c4ccc(c(Cl)c4)O3)c3ccc(O)c(c3)-c3c(O)cc(O)cc3C(C(=O)O)NC2=O)C(OC2CC(C)(N)C(O)C(C)O2)C(O)C1O (stereo not drawn) [XXXV, Glucose-C6-N-myristoyl Vancomycin]",0.16 µg/mL,3.8 µg/mL,2.5,1.3 µg/mL,0.015 µg/mL,,,,,,,,,
"CNC(CC(C)C)C(=O)NC1C(=O)NC(CC(N)=O)C(=O)NC2C(=O)NC3C(=O)NC(C(=O)NC(C(=O)O)c4cc(O)cc(O)c4-c4cc3ccc4O)C(O)c3ccc(c(Cl)c3)Oc3cc2cc(c3OC2OC(CSC(C)C)C(O)C(O)C2OC2CC(C)(N)C(O)C(C)O2)Oc2ccc(cc2Cl)C1O (stereo not drawn) [LIII, Glucose-C6-thiopropianato Vancomycin]",5.0< μg/mL,1.3 µg/mL,2.5,2.5 µg/mL,2.5 µg/mL,,,,,,,,,
